# Laboratory results from patent US10538498B2, “1,3,4-oxadiazole sulfonamide derivative compounds as histone deacetylase 6 inhibitor, and the pharmaceutical composition comprising the same” (Chong Kun Dang Pharmaceutical Corp., priority 2015, dated 2020).
# Molecular target: T1, human recombinant HDAC6 (Homo sapiens, UniProt Q9UBN7)
# T1 construct: purchased Calbiochem 382180
# T1 sequence (Q9UBN7 1-1215): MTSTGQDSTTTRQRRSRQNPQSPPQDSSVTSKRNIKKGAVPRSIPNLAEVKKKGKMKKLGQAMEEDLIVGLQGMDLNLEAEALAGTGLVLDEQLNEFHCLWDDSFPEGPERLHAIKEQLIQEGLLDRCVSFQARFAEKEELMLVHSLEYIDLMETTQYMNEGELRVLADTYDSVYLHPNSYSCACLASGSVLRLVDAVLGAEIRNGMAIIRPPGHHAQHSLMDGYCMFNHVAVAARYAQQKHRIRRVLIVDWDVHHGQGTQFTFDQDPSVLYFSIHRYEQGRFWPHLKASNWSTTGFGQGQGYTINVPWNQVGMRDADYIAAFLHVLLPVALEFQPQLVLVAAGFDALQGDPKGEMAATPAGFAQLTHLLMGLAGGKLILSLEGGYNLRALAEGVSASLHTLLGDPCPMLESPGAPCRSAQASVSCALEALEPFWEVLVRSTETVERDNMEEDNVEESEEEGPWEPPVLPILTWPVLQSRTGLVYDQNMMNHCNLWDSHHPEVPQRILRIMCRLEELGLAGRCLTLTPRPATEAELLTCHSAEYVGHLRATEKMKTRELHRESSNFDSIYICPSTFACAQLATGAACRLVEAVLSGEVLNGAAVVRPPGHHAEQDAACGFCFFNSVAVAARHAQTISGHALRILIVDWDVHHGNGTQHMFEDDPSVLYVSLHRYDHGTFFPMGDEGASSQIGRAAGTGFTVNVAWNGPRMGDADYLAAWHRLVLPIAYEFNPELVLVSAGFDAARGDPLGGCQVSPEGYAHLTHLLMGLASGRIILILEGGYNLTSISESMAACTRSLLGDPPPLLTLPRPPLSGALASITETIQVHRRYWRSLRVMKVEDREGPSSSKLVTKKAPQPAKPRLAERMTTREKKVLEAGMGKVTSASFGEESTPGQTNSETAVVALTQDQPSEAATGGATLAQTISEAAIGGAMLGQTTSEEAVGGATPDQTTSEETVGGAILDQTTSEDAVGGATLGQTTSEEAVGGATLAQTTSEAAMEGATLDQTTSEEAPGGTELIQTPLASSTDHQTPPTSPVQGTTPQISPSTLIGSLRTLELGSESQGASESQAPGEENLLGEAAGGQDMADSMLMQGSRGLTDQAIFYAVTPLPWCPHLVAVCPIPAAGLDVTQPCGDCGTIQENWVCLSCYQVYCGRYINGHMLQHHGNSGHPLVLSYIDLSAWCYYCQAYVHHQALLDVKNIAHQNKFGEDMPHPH
# Test: HDAC6 enzyme activity inhibition assay (HDAC Fluorimetric Drug Discovery Kit)
# Type: biochemical
# Conditions: for HDAC6 selectivity (fold): HDAC1 vs HDAC6; for IC50: same protocol as the HDAC1 enzyme activity test
# Method: In order to examine the HDAC6 selectivity of the compounds of formula I of the present invention by HDAC1 and HDAC6 enzymatic activity inhibition assays, an experiment was performed using a conventional substance as a control.
# HDAC enzyme activity was measured using a HDAC Fluorimetric Drug Discovery Kit (BML-AK511, 516, Enzo Life Science). For the HDAC1 enzyme activity test, human recombinant HDAC1 (BML-SE456) was used as an enzyme source, and Fluor de Lys®-“SIRT1 (BNL-KI177) was used as a substrate. A 5-fold dilution of the compound was seeded into a 96-well plate, and then 0.3 μg of the enzyme and 10 μM of the substrate were added to each well of the plate and allowed to react at 30° C. for 60 minutes. Then, Fluor de Lys®-Developer II (BML-KI176) was added thereto and allowed to react for 30 minutes, after which the fluorescence value (Ex 360, Em 460) was measured using a multi-plate reader (Flexstation 3, Molecular Device). The HDAC6 enzyme was tested using human recombinant HDAC6 (382180) (Calbiochem) according to the same protocol as the HDAC1 enzyme activity test method. Based on the resulting values, each IC50 value was calculated using GraphPad Prism4.0 program.
HDAC6 selectivity (fold),IC50 [nM],SMILES
2631,38,"CS(=O)(=O)N(Cc1ccc(-c2nnc(C(F)F)o2)cc1F)c1cccnc1 [Compound 11120, N-(4-(5-(difluoromethyl)-1,3,4-oxadiazol-2-yl)-2-fluorobenzyl)-N-(pyridin-3-yl)methanesulfonamide]"
48,2100,"COc1cc(-c2nnc(C(F)(F)F)o2)ccc1CN(c1cccnc1)S(C)(=O)=O [Compound 11129, N-(2-methoxy-4-(5-(trifluoromethyl)-1,3,4-oxadiazol-2-yl)benzyl)-N-(pyridin-3-yl)methanesulfonamide]"
290,345,"CS(=O)(=O)N(Cc1ccc(-c2nnc(C(F)(F)F)o2)c(F)c1)c1cccnc1 [Compound 11133, N-(3-fluoro-4-(5-(trifluoromethyl)-1,3,4-oxadiazol-2-yl)benzyl)-N-(pyridin-3-yl)methanesulfonamide]"
741,135,"O=S(=O)(c1cccnc1)N(Cc1ccc(-c2nnc(C(F)(F)F)o2)cc1)c1ccccc1 [Compound 11151, N-phenyl-N-(4-(5-(trifluoromethyl)-1,3,4-oxadiazol-2-yl)benzyl)pyridine-3-sulfonamide]"
793,126,"CCS(=O)(=O)N(Cc1ccc(-c2nnc(C(F)(F)F)o2)cc1F)c1ccccc1 [Compound 11153, N-(2-fluoro-4-(5-(trifluoromethyl)-1,3,4-oxadiazol-2-yl)benzyl)-N-phenylethanesulfonamide]"

# The remaining lines, values behind:
SMILES,HDAC6 selectivity (fold),IC50 [nM]
"O=S(=O)(CCCN1CCC(F)C1)N(Cc1ccc(-c2nnc(C(F)F)o2)cc1)c1ccccc1 (stereo in doubt) [Compound 11724, (R)—N-(4-(5-(difluoromethyl)-1,3,4-oxadiazol-2-yl)benzyl)-3-(3-fluoropyrrolidin-1-yl)-N-phenylpropane-1-sulfonamide]",741,135
"CS(=O)(=O)N(Cc1ccccn1)Cc1ccc(-c2nnc(C(F)(F)F)o2)cc1F [Compound 11044, N-(2-fluoro-4-(5-(trifluoromethyl)-1,3,4-oxadiazol-2-yl)benzyl)-N-(pyridin-2-ylmethyl)methanesulfonamide]",302,331
"CS(=O)(=O)N(Cc1ccc(-c2nnc(C(F)(F)F)o2)cc1)Cc1ccccn1 [Compound 11045, N-(pyridin-2-ylmethyl)-N-(4-(5-(trifluoromethyl)-1,3,4-oxadiazol-2-yl)benzyl)methanesulfonamide]",633,158
"COc1ccc(S(=O)(=O)NCc2ccc(-c3nnc(C(F)(F)F)o3)cc2)cc1 [Compound 11078, 4-methoxy-N-(4-(5-(trifluoromethyl)-1,3,4-oxadiazol-2-yl)benzyl)benzenesulfonamide]",29,3470
"CS(=O)(=O)NCc1ccc(-c2nnc(C(F)(F)F)o2)cc1 [Compound 11121, N-(4-(5-(trifluoromethyl)-1,3,4-oxadiazol-2-yl)benzyl)methanesulfonamide]",39,2540
"CS(=O)(=O)N(Cc1ccccn1)Cc1ccc(-c2nnc(C(F)(F)F)o2)cn1 [Compound 11128, N-(pyridin-2-ylmethyl)-N-((5-(5-(trifluoromethyl)-1,3,4-oxadiazol-2-yl)pyridin-2-yl)methyl)methanesulfonamide]",192,520
"O=S(=O)(c1cccnc1)N(Cc1ccc(-c2nnc(C(F)F)o2)cc1)c1ccccc1 [Compound 11152, N-(4-(5-(difluoromethyl)-1,3,4-oxadiazol-2-yl)benzyl)-N-phenylpyridine-3-sulfonamide]",1724,58
"CCS(=O)(=O)N(Cc1ccc(-c2nnc(C(F)F)o2)cc1F)c1ccccc1 [Compound 11154, N-(4-(5-(difluoromethyl)-1,3,4-oxadiazol-2-yl)-2-fluorobenzyl)-N-phenylethanesulfonamide]",5263,19
